Data reported in US20230048888A1, “USE OF TRIAZOLOTRIAZINE DERIVATIVE IN TREATMENT OF DISEASES” (ZHEJIANG VIMGREEN PHARMACEUTICALS, LTD., priority 2019, published 2023).
Blank lines part the entries; values can stand above or below the compound they belong to.

What was measured:
[1] = tested on: haloperidol-induced stiffness; assay: Haloperidol-induced Parkinson's disease stiffness model in CD-1 mice (rearing and bar tests); format: in vivo; details: Experiment I
Source text: Parkinson's disease (PD) is a common class of degenerative disease of the nervous system with the main pathological changes including the loss of substantia nigra dopaminergic neurons and the decrease of dopamine transmitter content, leading to tremor at rest, muscle stiffness, […], postural reflex disorders and other clinical symptoms. Haloperidol, a dopamine D2 receptor blocker, can block the dopamine D2 receptor in the striatum, leading to mouse dystonic postures, namely, stiffness and hypokinesia. This model is a recognized animal model of Parkinson's syndrome. The ameliorative effect of a test substance on the stiffness symptom of Parkinson's disease induced by haloperidol in CD-1 mice was evaluated. 57 SPF-grade male CD-1 mice (4 weeks old at the time of purchase and 8 weeks old at the time of experiment) with the weight of about 40 g were randomly divided into 5 groups, namely, a vehicle group (n=11), a group of 1 mg/kg benzene sulfonate of Compound 40 (n=11), a group of 3 mg/kg benzene sulfonate of Compound 40 (n=12), a group of 10 mg/kg benzene sulfonate of Compound 40 (n=12), and a group of 30 mg/kg benzene sulfonate of Compound 40 (n=11). 1 mg/kg haloperidol was injected subcutaneously at an injection volume of 10 ml/kg. 30 minutes after the injection, Compound 40 at each dose was intragastrically infused at a volume of 10 ml/kg. At the 1st hour and the 4th hour after the administration was completed, the rearing and bar tests were performed respectively, and the number of standings and on-bar time of the mice were counted to evaluate the ameliorative effect of Compound 40 on the stiffness symptom of haloperidol-induced Parkinson's disease in CD-1 mice. […] Firstly, the acetate of Compound 22 at each dose was intragastrically infused at a volume of 10 ml/kg. After 30 min, 1 mg/kg haloperidol was injected subcutaneously at an injection volume of 10 ml/kg. At the 1st hour and the 4th hour after the administration was completed, the rearing and bar tests were performed respectively, and the number of standings and on-bar time of the mice were counted to evaluate the ameliorative effect of the acetates of Compound 22 on the stiffness symptom of haloperidol-induced Parkinson's disease in CD-1 mice. […] Firstly, Compound 27 at each dose was intragastrically infused at a volume of 10 ml/kg. After 30 min, 1 mg/kg haloperidol was injected subcutaneously at an injection volume of 10 ml/kg. At the 1st hour and the 4th hour after the administration was completed, the rearing and bar tests were performed respectively, and the number of standings and on-bar time of the mice were counted to evaluate the ameliorative effect of Compound 27 on the stiffness symptom of haloperidol-induced Parkinson's disease in CD-1 mice. The mice were subcutaneously injected with haloperidol at abdomen at a dose of 1 mg/kg, with the concentration of a working solution of 0.1 mg/ml and an injection volume of 10 ml/kg. At the 1st hour and the 4th hour after drug intervention, the mice were put into a white transparent plastic bucket with a diameter of 20 cm and a height of 21 cm. The mice were allowed to acclimate in the bucket for 5 min before starting video recording. The spontaneous activity behaviors of the mice within 10 minutes were recorded, whereby the number of standings was counted. The more the standings, the more frequent the spontaneous exploration activities of the mice, and the lower the degree of stiffness. At the time points of 1st and 4th hours after the rearing test was completed, bar test was carried out. The mice were placed on a long wooden bar with a diameter of […] and a height of 6 cm. The mice were let to hold the wooden bar with forelimbs, only with the buttocks or hind limbs on the ground. The timing was stopped when the hind limbs left the bench top or the fore limbs left the wooden bar, and the on-bar time of the mice was recorded. Each mouse was tested 3 times, and the maximum on-bar time and the average on-bar time were counted. […]

[2] = tested on: haloperidol-induced stiffness; assay: Haloperidol-induced Wistar rat stiffness model (bar test, rearing); format: in vivo, Wistar rats; details: for Number of standings: 1st hour after haloperidol
Method: Time of bar test: The stiffness of the rats was tested by the bar test. That is, a wooden bar with a diameter of 8 mm was fixed between 2 iron stands and was 10 cm from the bench top; and then, the rat's tail was grabbed to make its front paws rest on the wooden bar and its hind paws or buttocks on the ground. Generally, the rat needs to acclimate several times when it was tested for the first time. The time for the forelimbs to drop from the bar or the time for the hind limbs to leave the bench top were tested, each rat was tested 3 times. Number of standings: the number of standings of the rat was measured by the rearing test. That is, the rat was placed in a 27*52 cm cage and acclimate for 5 minutes, and the spontaneous activity behavior, i.e., the number of standings, of the rat within 10 minutes was recorded. When the rat's hind limbs stood with two forelimbs raised over the shoulders and touched the ground, one standing is counted, and the one forelimb lift was excluded. Generally, the rat would raise its forelimbs to touch the cage wall. If the rat raised its forelimbs over the shoulders several times without falling to the ground, only one standing was counted. The time of bar test was taken as a measurement index, including the average time and the maximum time. Long time indicates severe stiffness, short time indicates mild stiffness. After drug treatment, the shorter the time of bar test, the better the effect of the drug on relieving stiffness. The number of standings was counted by the rearing test. The more the number of standings, the more frequent the spontaneous exploration activity of the rat, and the lower the stiffness. The statistical analysis between groups was performed on the data by using Prism GraphPad 7.0 independent sample T test, and P<0.05 was considered as a significant difference.

[3] = Pharmacokinetics of Compound 40 and benzene sulfonate thereof in ICR mice, PO; details: mouse, in vivo, PO 100 mg/kg (based on free base), 40% Hp-β-CD
adenosine receptors A2A = molecular target: T1, adenosine receptors A2A (Homo sapiens, UniProt P29274); assay: TR-FRET-based cAMP accumulation assay in hADORA2A-HEK293 cells; format: cell-based; details: NECA at EC80, hADORA2A-HEK293, read-out: A2AR activity (IC50)
T1 construct: expressed in transfected cells; host or cells: HEK293 (hADORA2A-HEK293)
T1 sequence (P29274 whole entry): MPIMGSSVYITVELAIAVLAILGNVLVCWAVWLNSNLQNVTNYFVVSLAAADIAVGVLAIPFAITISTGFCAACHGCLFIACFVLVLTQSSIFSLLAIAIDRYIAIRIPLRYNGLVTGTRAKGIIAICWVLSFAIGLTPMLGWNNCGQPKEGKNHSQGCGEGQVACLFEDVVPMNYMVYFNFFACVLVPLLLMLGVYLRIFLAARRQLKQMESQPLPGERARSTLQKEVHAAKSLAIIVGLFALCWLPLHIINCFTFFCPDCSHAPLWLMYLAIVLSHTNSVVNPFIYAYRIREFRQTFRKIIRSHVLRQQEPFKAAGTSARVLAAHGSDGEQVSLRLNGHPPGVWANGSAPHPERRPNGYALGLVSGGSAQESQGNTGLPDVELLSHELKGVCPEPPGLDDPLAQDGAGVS
Method: The inhibitory effects of the test compounds on the adenosine receptors A2A were evaluated by TR-FRET-based cAMP accumulation assay. The method included, in HEK293 cells (hADORA2A-HEK293) expressing A2AR, the production of cAMP stimulated by NECA and the inhibitory effect of A2A receptor antagonists on cAMP. All cells were cultured in a complete medium at 37° C. in the presence of 5% CO2. After being digested with trypsin, the cells were collected by centrifugation at 200 g for 5 minutes. The cells were resuspended in a fresh complete medium, and then the cell viability was counted by a trypan blue exclusion method. […] The cells were diluted with Hank's buffer solution containing HEPES (5 mM), BSA stabilizer (0.1%) and Rolipram (10 μM), then added to a 384-well white non-transparent plate (cells/well, 10 μl/well), and incubated with the test compound at an appropriate concentration (11 concentrations) for 20 minutes at room temperature. Then, the A2A receptor agonist NECA (final concentration=EC80, which was determined in the same experiment performed earlier) was added to the sample, and the sample was incubated again at 37° C. for 30 minutes.
An inhibition rate (%) was calculated according to the following formula, and an IC50 value was calculated from a concentration-inhibition (%) curve after log conversion.
A curve corresponding to the dose was fitted by using XLfit software and the IC50 was determined.

[4] = Pharmacokinetics of test compounds in SD rats (15.2; IV and PO, mixed administration); format: in vivo; details: male, Sprague-Dawley, rat, plasma, SD rats, PO
Method: Administration dose: the compounds in this group were all administered in a mixed way, with 6 compounds in each group for mixed PO administration.
Blood was collected based on the blood collection points in the test protocol. 50 μL of plasma sample was added with acetonitrile (containing 5 ng/mL Verapamil) being 3 folds of the volume thereof; the resulting mixture was vortexed for 30 s, and then centrifuged for 15 min at 15,000 rpm at 4° C.; and 10μ L of supernatant was taken for LC-MS/MS analysis.
For each compound, 3 male SD rats weighing 200-220 g were fasted for one night before dosage, but had access to water.
Orally intragastric administration: before intragastric administration and at 0.083 h, 0.25 h, 0.5 h, 1 h, 2 h, 4 h, 8 h and 24 h after administration (for Compounds 40, 27, 40 and 47), or at 0.25 h, 0.5 h, 1 h, 4 h, 6 h and 8 h after administration (for Compounds 44 and 48), orbital blood was collected and put in a test tube that was treated with heparin sodium, and after centrifugation, the supernatant plasma was collected for LC-MS/MS analysis.
The plasma samples were processed according to the method for “sample treatment” and then analyzed by LC-MS/MS, accompanied with the standard curve and quality control samples. At a time point when the upper limit of quantification was exceeded, the samples were diluted 10 or 100 folds for analysis. All measured data were collected and processed by Analyst 1.6.3 software, and the data were calculated and processed with Microsoft Excel. With DAS 3.2.8 software, the pharmacokinetic parameters were calculated by the statistical moment method. The pharmacokinetic parameters mainly include Tmax, t1/2, Cmax, AUC(0-t), etc.

[5] = as above; format: in vivo; details: PO, 3 mg/kg
[6] = 10 mg/kg intragastric, 1st hour
[7] = 10 mg/kg intragastric, 4th hour
[8] = 30 mg/kg intragastric, 1st hour
[9] = 30 mg/kg intragastric, 4th hour
[10] = male, Sprague-Dawley, rat, plasma

AUC(0-t) [3]: 138000 ng·h/mL
Cmax [3]: 36000 ng/mL
Tmax [3]: 0.5 h
AUC(0-inf) ([3]; read-out: AUCINF—pred): 138000 ng·h/mL
half-life ([3]; read-out: T½ (converted)): 2.29 h
Compound: Cn1nnc(-c2ccc(CCNc3nc(N)n4nc(-c5ccco5)nc4n3)cc2)n1.O=S(=O)(O)c1ccccc1 [Benzene sulfonate of Compound 40, N^5-(4-(2-methyl-2H-tetrazol-5-yl)phenethyl)-2-(furan-2-yl)-[1,2,4]triazolo[1,5-a][1,3,5]triazine-5,7-diamine benzene sulfonate]
Average on-bar time ([1]; 1 mg/kg intragastric, 1st hour): 237.67 ± 40.20 s
Maximum on-bar time ([1]; 1 mg/kg intragastric, 1st hour): 356.43 ± 55.79 s
Number of standings ([1]; 1 mg/kg intragastric, 1st hour): 17.00 ± 1.99
Average on-bar time ([1]; 1 mg/kg intragastric, 4th hour): 241.14 ± 31.32 s
Maximum on-bar time ([1]; 1 mg/kg intragastric, 4th hour): 361.29 ± 53.92 s
Number of standings ([1]; 1 mg/kg intragastric, 4th hour): 8.71 ± 2.68
Average on-bar time ([1]; 3 mg/kg intragastric, 1st hour): 120.05 ± 35.31 s
Maximum on-bar time ([1]; 3 mg/kg intragastric, 1st hour): 184.00 ± 50.55 s
Number of standings ([1]; 3 mg/kg intragastric, 1st hour): 17.00 ± 2.99
Average on-bar time ([1]; 3 mg/kg intragastric, 4th hour): 171.76 ± 52.86 s
Maximum on-bar time ([1]; 3 mg/kg intragastric, 4th hour): 225.14 ± 51.96 s
Number of standings ([1]; 3 mg/kg intragastric, 4th hour): 14.86 ± 1.89
Average on-bar time [1, 6]: 36.10 ± 5.88 s
Maximum on-bar time [1, 6]: 57.00 ± 11.21 s
Number of standings [1, 6]: 34.90 ± 4.75
Average on-bar time [1, 7]: 66.07 ± 13.96 s
Maximum on-bar time [1, 7]: 96.10 ± 23.06 s
Number of standings [1, 7]: 17.80 ± 4.32
Average on-bar time [1, 8]: 26.50 ± 5.88 s
Maximum on-bar time [1, 8]: 34.88 ± 6.68 s
Number of standings [1, 8]: 43.25 ± 3.89
Average on-bar time [1, 9]: 20.00 ± 1.28 s
Maximum on-bar time [1, 9]: 24.13 ± 1.67 s
Number of standings [1, 9]: 25.13 ± 3.25
Average on-bar time ([2]; 3 mg/kg intragastric): 212.67 ± 51.43 s
Maximum on-bar time ([2]; 3 mg/kg intragastric): 266.63 ± 50.73 s
Number of standings ([2]; 3 mg/kg intragastric): 1.75 ± 0.60
Average on-bar time ([2]; 10 mg/kg intragastric): 41.67 ± 16.50 s
Maximum on-bar time ([2]; 10 mg/kg intragastric): 69.67 ± 28.71 s
Number of standings ([2]; 10 mg/kg intragastric): 7.89 ± 0.98
Average on-bar time ([2]; 30 mg/kg intragastric): 12.29 ± 1.41 s
Maximum on-bar time ([2]; 30 mg/kg intragastric): 18.00 ± 2.21 s
Number of standings ([2]; 30 mg/kg intragastric): 13.00 ± 0.96

IC50 (adenosine receptors A2A): 13.9 nM
AUC(0-t) ([4]; 2 mg/kg, mixed administration (6 compounds per group)): 779 ng·h/mL
half-life ([4]; 3 mg/kg, read-out: T½ (converted)): 2.25 h
Cl_F_pred [5]: 23.1623 mL/min/kg
AUC(0-t) [5, 10]: 1500 ng·h/mL
Cmax [5, 10]: 538 ng/mL
Compound: COCCn1nnc(-c2ccc(CCNc3nc(N)n4nc(-c5ccco5)nc4n3)cc2)n1 [Compound 47, N5-(4-(2-(2-methoxyethyl)-2H-tetrazol-5-yl)phenethyl)-2-(furan-2-yl)-[1,2,4]triazolo[1,5-a][1,3,5]triazine-5,7-diamine]
